Source: the RepoRT retention time repository (doi:10.1016/j.foodchem.2021.129757)
One block for each compound: values may come before it.

Assays:
Conditions in all cases: stereoisomer not certain
[1] = RP, Merck LiChrospher RP-18, 250 × 4 mm, 5 µm, 35 °C, 0.3 mL/min, estimated dead time 6.7 min; A: water + 0.5% formic acid; B: acetonitrile + 0.5% formic acid; gradient (min/%B) 0/5 10/5 30/15 45/20 65/20 95/54 110/63 115/5 135/5
[2] = RP, Phenomenex Luna C18, 150 × 4.6 mm, 3 µm, 25 °C, 0.5 mL/min, estimated dead time 3.2 min; A: water + 0.1% formic acid, pH 3; B: acetonitrile + 0.1% formic acid, pH 3; gradient (min/%B) 0/0 30/30 35/40 50/80 52/80 60/0 65/0
[3] = RP, Phenomenex Luna Omega Polar C18, 100 × 2.1 mm, 1.6 µm, 40 °C, 0.5 mL/min, estimated dead time 0.44 min; A: water + 0.5% formic acid; B: acetonitrile + 0.5% formic acid; gradient (min/%B) 0/5 3/50 3.1/100 5/100 5.1/5 7/5
[4] = RP, Phenomenex Synergi Hydro-RP, 150 × 2 mm, 4 µm, 30 °C, 0.5 mL/min, estimated dead time 0.6 min; A: water + 0.1% formic acid, pH 3; B: acetonitrile + 0.1% formic acid, pH 3; gradient (min/%B) 0/5 1/5 35/45 40/100 45/100
[5] = RP, Agilent ZORBAX Eclipse XDB-C18, 100 × 2.1 mm, 1.8 µm, 50 °C, 0.4 mL/min, estimated dead time 0.55 min; A: water + 0.1% formic acid, pH 3; B: methanol + 0.1% formic acid, pH 3; gradient (min/%B) 0/2 10/100 14.5/100 14.51/2 16.5/2
[6] = RP, Waters ACQUITY UPLC BEH Shield RP18, 100 × 2.1 mm, 1.7 µm, 30 °C, 0.6 mL/min, estimated dead time 0.37 min; A: water + 0.1% formic acid, pH 3; B: acetonitrile + 0.1% formic acid, pH 3; gradient (min/%B) 0/0 2/0 7/10 22/95 22.1/0 26/0
[7] = RP, Waters ACQUITY UPLC BEH Shield RP18, 150 × 2.1 mm, 1.7 µm, 40 °C, 0.4 mL/min, estimated dead time 0.83 min; A: water + 0.1% formic acid, pH 3; B: acetonitrile + 0.1% formic acid, pH 3; gradient (min/%B) 0/0 30/50 31/100 37/100 37.1/0
[8] = RP, Waters ACQUITY UPLC HSS T3, 100 × 2.1 mm, 1.8 µm, 30 °C, 0.4 mL/min, estimated dead time 0.55 min; A: water + 0.1% formic acid, pH 3; B: acetonitrile + 0.1% formic acid, pH 3; gradient (min/%B) 0/0 2/0 15/100 22/100 22.1/0 26/0
[9] = RP, Waters Atlantis T3, 100 × 2.1 mm, 3 µm, 40 °C, 0.3 mL/min, estimated dead time 0.73 min; A: water + 0.1% trifluoroacetic acid, pH 2; B: acetonitrile + 0.1% trifluoroacetic acid, pH 2; gradient (min/%B) 0/10 1/10 6/40 7/50 8/50 14/70 16/80 20/10 25/10
[10] = RP, 50 × 0.5 mm, 2.7 µm, 35 °C, 0.01 mL/min, estimated dead time 0.62 min; A: water + 0.1% formic acid, pH 3; B: acetonitrile + 0.1% formic acid, pH 3; gradient (min/%B) 0/5 12/95 14/95 16/5
[11] = RP, Agilent InfinityLab Poroshell 120 EC-C18, 100 × 3 mm, 2.7 µm, 25 °C, 0.4 mL/min, estimated dead time 1.1 min; A: water + 0.1% formic acid, pH 3; B: acetonitrile + 0.1% formic acid, pH 3; gradient (min/%B) 0/5 10/25 20/40 24/90 25/90 26/5 30/5
[12] = RP, Phenomenex Synergi Hydro-RP, 250 × 2 mm, 4 µm, 25 °C, 0.2 mL/min, estimated dead time 2.5 min; A: water + 0.1% formic acid, pH 3; B: acetonitrile + 0.1% formic acid, pH 3; gradient (min/%B) 0/0.5 7/0.5 12/12.5 25/16.3 47/35 48/65 50/65 50.1/0.5
[13] = RP, 150 × 2.1 mm, 2.6 µm, 40 °C, 0.35 mL/min, estimated dead time 0.94 min; A: water + 0.1% formic acid, pH 3; B: acetonitrile + 0.1% formic acid, pH 3; gradient (min/%B) 0/0 1/0 12.5/100 14/100 14.2/0 15/0
[14] = RP, 150 × 2.1 mm, 2.6 µm, 40 °C, 0.35 mL/min, estimated dead time 0.94 min; A: water + 0.1% formic acid, pH 3; B: acetonitrile + 0.1% formic acid, pH 3; gradient (min/%B) 0/0 1/5 7/45 8.5/80 10.5/80 11/5 12/5
[15] = RP, Phenomenex Kinetex EVO C18, 100 × 2.1 mm, 2.6 µm, 40 °C, 0.4 mL/min, estimated dead time 0.55 min; A: water + 0.2% formic acid; B: acetonitrile + 0.2% formic acid; gradient (min/%B) 0/5 0.5/5 7/95 8/95 8.5/5 12/5
[16] = RP, Waters ACQUITY UPLC BEH C18, 100 × 2.1 mm, 1.7 µm, 65 °C, 0.4 mL/min, estimated dead time 0.55 min; A: water + 0.1% formic acid, pH 3; B: 80% acetonitrile + 20% acetone + 0.1% formic acid, pH 3; gradient (min/%B) 0/0 5/100 5.5/0 6/0
[17] = RP, Waters ACQUITY UPLC HSS T3, 100 × 2.1 mm, 50 °C; A: water + 0.1% formic acid, pH 3; B: 30% methanol + 70% acetonitrile + 0.1% formic acid, pH 3; gradient (min/%B) 0/5 1/8 2/15 3/40 4/70 4.5/100 5/100 6.4/100 6.6/5 6.8/5 7/5
[18] = RP, Agilent ZORBAX RRHD Eclipse Plus C18, 50 × 2.1 mm, 1.8 µm, 30 °C, 0.4 mL/min, estimated dead time 0.28 min; A: water + 0.1% formic acid, pH 3; B: acetonitrile + 0.1% formic acid, pH 3; gradient (min/%B) 0/1 5/10 8/25 9.1/99 10/99 12/99
[19] = RP, Agilent ZORBAX RRHD Eclipse Plus C18, 50 × 2.1 mm, 1.8 µm, 30 °C, 0.4 mL/min, estimated dead time 0.28 min; A: water + 0.1% formic acid, pH 3; B: acetonitrile + 0.1% formic acid, pH 3; gradient (min/%B) 0/1 5/10 8/25 9.1/99 10/99 12/1

LC retention time [1]: 92.7 min
SMILES: CCOC(=O)C=Cc1ccc(O)c(O)c1 [Ethyl Caffeate]

LC retention time [1]: 53.9 min
SMILES: CCOC(=O)c1cc(O)c(O)c(O)c1 [Ethyl Gallate]

LC retention time [1]: 83.2 min | LC retention time [15]: 5.24 min | LC retention time [9]: 8.38 min
SMILES: CC=C1C(OC2OC(CO)C(O)C(O)C2O)OC=C(C(=O)OC)C1CC(=O)OCCc1ccc(O)c(O)c1 (stereo unspecified) [Oleuropein]

LC retention time [1]: 63.4 min | LC retention time [17]: 3.53 min | LC retention time [18]: 7.99 min | LC retention time [19]: 7.72 min | LC retention time [16]: 2.14 min | LC retention time [12]: 33.9 min | LC retention time [9]: 7.5 min
SMILES: O=C(O)/C=C/c1cccc(O)c1 [m-Coumaric acid]

LC retention time [1]: 90.1 min | LC retention time [7]: 15.8 min | LC retention time [13]: 7.02 min | LC retention time [14]: 7.28 min
SMILES: COc1cc(C=CC(=O)O)cc(OC)c1OC [o-Methylsinapic acid]

LC retention time [4]: 9.27 min
SMILES: COc1cc(C(=O)O)ccc1O [vanillic acid]

LC retention time [4]: 8.67 min
SMILES: COc1cc(C=O)ccc1O [vanillin]

Further lines, the compound ahead of its results:

SMILES: O=Cc1ccc(CO)o1 [5-Hydroxymethylfurfural]
LC retention time [1]: 24.2 min

SMILES: OCC1OC(Oc2cc3c(O)cc(O)cc3[o+]c2-c2ccc(O)c(O)c2)C(O)C(O)C1O (stereo unspecified) [Cyanidin 3-O-glucoside]
LC retention time [1]: 49 min | LC retention time [2]: 9.83 min | LC retention time [3]: 1.76 min | LC retention time [4]: 9.85 min | LC retention time [5]: 3.52 min | LC retention time [6]: 10.8 min | LC retention time [7]: 7.98 min | LC retention time [8]: 7.85 min | LC retention time [9]: 5.04 min | LC retention time [10]: 3.25 min | LC retention time [11]: 5.65 min

SMILES: CC1OC(OCC2OC(Oc3cc4c(O)cc(O)cc4[o+]c3-c3ccc(O)c(O)c3)C(O)C(O)C2O)C(O)C(O)C1O (stereo unspecified) [Cyanidin-3-O-rutinoside]
LC retention time [1]: 49.6 min | LC retention time [7]: 6.43 min

SMILES: COc1cc(-c2oc3cc(O)cc(O)c3c(=O)c2OC2OC(CO)C(O)C(O)C2O)ccc1O (stereo unspecified) [Isorhamnetin-3-O-glucoside]
LC retention time [1]: 78.5 min | LC retention time [12]: 38.7 min | LC retention time [9]: 7.94 min

SMILES: COc1cc(-c2oc3cc(O)cc(O)c3c(=O)c2OC2OC(COC3OC(C)C(O)C(O)C3O)C(O)C(O)C2O)ccc1O (stereo unspecified) [Isorhamnetin-3-O-rutinoside]
LC retention time [1]: 71.3 min | LC retention time [13]: 5.8 min | LC retention time [14]: 5.95 min

SMILES: CCC=CCC1C(=O)CCC1CC(=O)O (stereo unspecified) [Jasmonic Acid]
LC retention time [1]: 96.2 min

SMILES: O=c1cc(-c2ccc(O)c(O)c2)oc2cc(OC3OC(CO)C(O)C(O)C3O)cc(O)c12 (stereo unspecified) [Luteolin 7-glucoside]
LC retention time [1]: 62.2 min | LC retention time [7]: 12.4 min | LC retention time [13]: 5.68 min | LC retention time [14]: 5.79 min | LC retention time [9]: 7.79 min

SMILES: O=C1CC(c2ccc(O)cc2)Oc2cc(O)cc(O)c21 (stereo unspecified) [Naringenin]
LC retention time [1]: 95.6 min | LC retention time [7]: 21.1 min | LC retention time [8]: 11.6 min | LC retention time [13]: 7.61 min | LC retention time [14]: 7.97 min | LC retention time [9]: 10.1 min | LC retention time [11]: 16.3 min

SMILES: O=c1c(O)c(-c2ccc(OC3OC(CO)C(O)C(O)C3O)c(O)c2)oc2cc(O)cc(O)c12 (stereo unspecified) [Quercetin 4-O-glucoside]
LC retention time [1]: 78 min | LC retention time [13]: 6.09 min | LC retention time [9]: 7.94 min

SMILES: COc1cc(C=O)cc(OC)c1O [Syringaldehyde]
LC retention time [1]: 58.1 min | LC retention time [16]: 2.11 min | LC retention time [13]: 5.74 min | LC retention time [14]: 5.66 min

SMILES: COc1ccc(-c2cc(=O)c3c(OC)c(OC)c(OC)c(OC)c3o2)cc1 [Tangeretin]
LC retention time [2]: 49 min | LC retention time [3]: 3.93 min | LC retention time [4]: 36.5 min | LC retention time [5]: 8.59 min | LC retention time [6]: 16.9 min | LC retention time [7]: 26.7 min | LC retention time [8]: 13.7 min | LC retention time [10]: 7.8 min | LC retention time [11]: 22.8 min

SMILES: OCCc1ccc(O)cc1 [Tyrosol]
LC retention time [1]: 38.7 min

SMILES: O=C(O)CC(O)C(=O)O (stereo unspecified) [malic acid]
LC retention time [1]: 8.06 min | LC retention time [12]: 3.87 min

SMILES: CC1CCC2(C(=O)O)CCC3(C)C(=CCC4C5(C)CCC(O)C(C)(C)C5CCC43C)C2C1C (stereo unspecified) [ursolic acid]
LC retention time [4]: 42 min
